Structures are written as SMILES.

We go through 4 molecules from patent publication US12171230B2, “Herbicidal compositions” (Bayer Aktiengesellschaft, priority 2018, dated 2024).

What all share (format): in vivo
Assay [1] has as its system Brachiaria plantaginea. The assay is described as follows: Post-emergence herbicidal action against Brachiaria plantaginea. The source says:
(§1) The following abbreviations are used in the description and the tables that follow: • g of a.i./ha=grams of active substance (active ingredient) (=100% active compound) per hectare; • The sum total of the effects of the individual applications is reported under E^A; • expected values according to Colby are each reported under E^C.
(§2) The rating period is reported in days after application (DAT).

In assay [2] the test system is Digitaria horizontalis. Nature of the assay: Post-emergence herbicidal action against Digitaria horizontalis. The following applies: A3/Asulam, post-emergence, g of a.i./ha by row: 720, 100, 100 + 720.
From the text: as §1, §2

For assay [3], the system named is Lamium purpureum. Nature of the assay: Post-emergence herbicidal action against Lamium purpureum. Put shortly: (§3)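 Greenhouse pot test, sandy loam; weeds from seed or rhizome. Post-emergence spray at three-leaf stage (3 wk after sowing), 300–800 l/ha water, various dosages. Visual % efficacy vs untreated at 3–4 wk; Colby expected value used to flag synergism.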
The test system of assay [4] is Poa annua. Nature of the assay: Post-emergence herbicidal action against Poa annua. Put shortly:
as §3

The subject of assay [5] is Centaurea cyano. The assay is described as follows: Post-emergence herbicidal action against Centaurea cyano. As to conditions: for Herbicidal action against Centaurea cyanus: 50 g of a.i./ha. Put shortly:
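Greenhouse pot-grown plants sprayed post-emergence at the three-leaf stage, three weeks after sowing, with spray-powder or emulsion-concentrate formulations at various dosages in 300 to 800 l/ha water on green parts.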

Assay [6] concerns Galium aparine. Nature of the assay: Post-emergence herbicidal action against Galium aparine. Put shortly:
as §3

The test system of assay [7] is Matricaria inodora. The assay is described as follows: Post-emergence herbicidal action against Matricaria inodora.
Assay [8] deals with Lolium rigidum. The assay is described as follows: Post-emergence herbicidal action against Lolium rigidum.
From the text: as §1, §2

Assay [9] has as its system Lolium rigidum (resistant biotype). Nature of the assay: Post-emergence herbicidal action against Lolium rigidum (resistant biotype).
For assay [10], the system named is Phalaris minor. The assay is described as follows: Post-emergence herbicidal action against Phalaris minor.
In assay [11] the test system is Veronica hederifolia. The assay is described as follows: Post-emergence herbicidal action against Veronica hederifolia.
In assay [12] the test system is Alopecurus myosuroides. Nature of the assay: Post-emergence herbicidal action against Alopecurus myosuroides. An outline of the steps:
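Assessment time was recorded as days after application. Activity for mixtures was set against E^C, the Colby expected value, and against E^A, the total of the effects from each component applied alone; application rates were in g of active substance per hectare.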

Assay [13] relates to Bromus sterilis. The assay is described as follows: Post-emergence herbicidal action against Bromus sterilis.
From the text: as §1, §2

Assay [14] relates to Alopecurus myosuroides. Nature of the assay: Post-emergence herbicidal action against Alopecurus myosuroides. The source holds these as a separate data set.
Assay [15] concerns Bromus sterilis. Nature of the assay: Post-emergence herbicidal action against Bromus sterilis. The source holds these as a separate data set.
For assay [16], the system named is Lolium rigidum. Nature of the assay: Post-emergence herbicidal action against Lolium rigidum. The source holds these as a separate data set.
The test system of assay [17] is Viola tricolor. The assay is described as follows: Post-emergence herbicidal action against Viola tricolor.

With `COC(=O)NS(=O)(=O)c1ccc(N)cc1` [(B2.4) Asulam], the “Herbicidal action 28 DAT against Brachiaria plantaginea” value in [1] (A3/Asulam, post-emergence, g of a.i./ha by row: 720, 100, 100 + 720) is on record as 0%. In addition, the “Herbicidal action 28 DAT against Digitaria horizontalis” value in assay [2] (first sub-table) and in assay [2] (second sub-table) was 0% throughout.

On to `COc1nn(C(=O)NS(=O)(=O)c2c(C(=O)O)csc2C)c(=O)n1C` [(B2.68) Thiencarbazone], for which the “Herbicidal action 28 DAT against Lamium purpureum L.” value in [3] (0.17 g of a.i./ha) is recorded as 35%. Also, the “Herbicidal action against Poa annua L.” value was found to be 10% in assay [4] (14 DAT, 0.5 g of a.i./ha); 15% in assay [4] (14 DAT, 1.5 g of a.i./ha); 0% in assay [4] (28 DAT, 0.5 g of a.i./ha); 25% in assay [4] (28 DAT, 1.5 g of a.i./ha). Also, the “Herbicidal action 14 DAT against Centaurea cyanus” value in [5] (0.17 g of a.i./ha) is 0%. For the same molecule, the “Herbicidal action 28 DAT against Centaurea cyanus” value in assay [5] (0.17 g of a.i./ha) came to 0%; in [5] (1.5 g of a.i./ha), 35%. The “Herbicidal action 14 DAT against Galium aparine” value in assay [6] (0.17 g of a.i./ha) is 60%. Moreover, the “Herbicidal action 28 DAT against Galium aparine” value in assay [6] (0.17 g of a.i./ha) was found to be 50%. Also, the “Herbicidal action against Matricaria inodora” value in [7] (14 DAT, 0.17 g of a.i./ha) was determined as 15%; in assay [7] (14 DAT, 0.5 g of a.i./ha) it was 50%; in assay [7] (28 DAT, 0.17 g of a.i./ha) it was 0%. In addition, the “Herbicidal action 14 DAT against Lolium rigidum” value in assay [8] (0.5 g of a.i./ha) was 60%; in assay [8] (1.5 g of a.i./ha), 85%. The results for the “Herbicidal action 28 DAT against Lolium rigidum” value in [8] (0.5 g of a.i./ha) and in assay [8] (1.5 g of a.i./ha) were 10% and 50%, respectively. The “Herbicidal action against Lolium rigidum (resistant biotype)” value in assay [9] (14 DAT, 0.17 g of a.i./ha) turned out to be 0%; in assay [9] (14 DAT, 0.5 g of a.i./ha), 0%; in [9] (14 DAT, 1.5 g of a.i./ha) it was 0%; in assay [9] (28 DAT, 0.5 g of a.i./ha), 10%; in assay [9] (28 DAT, 1.5 g of a.i./ha), 20%. In addition, the “Herbicidal action against Phalaris minor” value is 0% in assay [10] (14 DAT, 0.17 g of a.i./ha); 15% in [10] (14 DAT, 0.5 g of a.i./ha); 10% in assay [10] (14 DAT, 1.5 g of a.i./ha); 0% in [10] (28 DAT, 0.5 g of a.i./ha); 20% in [10] (28 DAT, 1.5 g of a.i./ha). In addition, the “Herbicidal action against Veronica hederifolia” value in assay [11] (14 DAT, 0.17 g of a.i./ha) was found to be 70%; in assay [11] (28 DAT, 0.17 g of a.i./ha), 70%. For the same molecule, the results for the “Herbicidal action 14 DAT against Alopecurus myosuroides” value in assay [12] (0.5 g of a.i./ha) and in [12] (1.5 g of a.i./ha) were 40% and 35%, respectively. Moreover, in [12] (1.5 g of a.i./ha), the “Herbicidal action 28 DAT against Alopecurus myosuroides” value is given as 30%. In addition, the “Herbicidal action 14 DAT against Bromus sterilis” value in [13] (0.5 g of a.i./ha) amounted to 15%; in [13] (1.5 g of a.i./ha) it was 20%. The entries for the “Herbicidal action 28 DAT against Bromus sterilis” value in [13] (0.5 g of a.i./ha) and in assay [13] (1.5 g of a.i./ha) were 15% and 20%, respectively.

In the case of `N#Cc1cc(Br)c(O)c(Br)c1` [(B3.1) Bromoxynil], the “Herbicidal action against Lamium purpureum L.” value in assay [3] (14 DAT, 150 g of a.i./ha) is 15%; in [3] (14 DAT, 450 g of a.i./ha) it was 40%; in [3] (28 DAT, 150 g of a.i./ha) it was 25%; in [3] (28 DAT, 450 g of a.i./ha), 25%. Moreover, the “Herbicidal action against Poa annua L.” value amounted to 15% in [4] (14 DAT, 150 g of a.i./ha); 20% in [4] (14 DAT, 450 g of a.i./ha); 15% in assay [4] (28 DAT, 150 g of a.i./ha); 25% in assay [4] (28 DAT, 450 g of a.i./ha). Besides, the “Herbicidal action against Centaurea cyanus” value worked out at 30% in [5] (14 DAT) and 10% in assay [5] (28 DAT). The “Herbicidal action against Galium aparine” value came out at 20% in [6] (14 DAT, 50 g of a.i./ha); 30% in assay [6] (14 DAT, 150 g of a.i./ha); 50% in [6] (14 DAT, 450 g of a.i./ha); 75% in assay [6] (28 DAT, 450 g of a.i./ha). In addition, the “Herbicidal action against Matricaria inodora” value in [7] (14 DAT, 50 g of a.i./ha) worked out at 40%; in assay [7] (14 DAT, 450 g of a.i./ha), 85%; in [7] (28 DAT, 50 g of a.i./ha) it was 15%; in assay [7] (28 DAT, 450 g of a.i./ha), 80%. Moreover, the “Herbicidal action against Lolium rigidum (resistant biotype)” value is on record as 0% in assay [9] (14 DAT, 150 g of a.i./ha); 15% in [9] (14 DAT, 450 g of a.i./ha); 10% in assay [9] (28 DAT, 150 g of a.i./ha); 20% in [9] (28 DAT, 450 g of a.i./ha). Further, the “Herbicidal action against Phalaris minor” value in assay [10] (14 DAT, 50 g of a.i./ha) amounted to 0%; in assay [10] (14 DAT, 150 g of a.i./ha), 10%; in assay [10] (14 DAT, 450 g of a.i./ha) it was 15%; in assay [10] (28 DAT, 150 g of a.i./ha), 0%; in assay [10] (28 DAT, 450 g of a.i./ha), 15%. Further, the “Herbicidal action against Veronica hederifolia” value in assay [11] (14 DAT, 150 g of a.i./ha) is recorded as 0%; in [11] (14 DAT, 450 g of a.i./ha), 20%. The “Herbicidal action against Alopecurus myosuroides” value in [14] (14 DAT, 150 g of a.i./ha) worked out at 15%; in assay [14] (14 DAT, 450 g of a.i./ha) it was 25%; in assay [14] (28 DAT, 150 g of a.i./ha), 15%; in assay [14] (28 DAT, 450 g of a.i./ha), 25%. Moreover, the “Herbicidal action against Bromus sterilis” value in [15] (14 DAT, 50 g of a.i./ha) was 0%; in [15] (14 DAT, 150 g of a.i./ha), 10%; in [15] (14 DAT, 450 g of a.i./ha), 10%; in [15] (28 DAT, 150 g of a.i./ha), 15%; in [15] (28 DAT, 450 g of a.i./ha), 20%. For the same molecule, the “Herbicidal action against Lolium rigidum” value is reported as 0% in assay [16] (14 DAT, 150 g of a.i./ha); 15% in assay [16] (14 DAT, 450 g of a.i./ha); 10% in assay [16] (28 DAT, 150 g of a.i./ha); 20% in assay [16] (28 DAT, 450 g of a.i./ha). Further, the “Herbicidal action against Viola tricolor” value in [17] (14 DAT, 50 g of a.i./ha) amounted to 15%; in assay [17] (14 DAT, 150 g of a.i./ha), 50%; in assay [17] (14 DAT, 450 g of a.i./ha), 30%; in [17] (28 DAT, 50 g of a.i./ha), 25%; in assay [17] (28 DAT, 150 g of a.i./ha) it was 40%; in [17] (28 DAT, 450 g of a.i./ha) it was 15%.

In the case of `COc1c(Cl)ccc(-c2nc(C(=O)O)c(Cl)c(N)c2F)c1F` [(B5.23) Florpyrauxifen], the “Herbicidal action 28 DAT [%] against Brachiaria plantaginea” value in [1] (30 g of a.i./ha) came to 40%.
